Results published in US8598173B2, “1-[(6,7-substituted alkoxyquinoxalinyl)aminocarbonyl]-4-(hetero)arylpiperazine derivatives for treating tumors” (Korea Research Institute of Chemical Technology, priority 2004, dated 2013).
Like-named read-outs stand apart in the source and are kept apart here.

What was measured:
PANC-1 (pancreas) = assay: Cell growth inhibition assay (SRB), PANC-1; format: cell-based, human; settings: SRB method, 96 hours incubation
Experimental: (§1) OVCAR-3, MCF-7, PC3, HepG2, A549, HT-29 and MKN-45 were grown in RPMI1640 medium (Invitrogen, Carlsbad, Calif.) supplemented with 10% fetal bovine serum (‘FBS’), 1 mM sodium pyruvate, 10 mM HEPES and 100 U/ml penicillin and […] streptomycin (‘P/S’). MDA-MB-231, HCT116, UMRC2, Caki-1, PANC-1 and HEK293 cells were maintained in Dulbecco's modified Eagle's medium (‘DMEM’, Invitrogen) supplemented with 10% FBS, P/S, 10 mM HEPES and 2 mM L-glutamine. HUVEC was maintained in M199 supplemented with basic fibroblast growth factor (‘bFGF’) […] and FBS 20%. All cells were incubated at 37° C. under humidified 5% CO2.
(§2) The growth inhibition of the substituted quinoxalin-piperazine compounds against a variety of human tumor cells was evaluated. The relative importance of particular substituent groups on the compounds was also studied. The substituted piperazine derivative compounds, prepared as described above, were tested, along with DMSO as a control.
(§3) The growth inhibition assay of various compounds against human tumor cell lines was performed using the Sulforhodamine B (‘SRB’) method (Skehan et al., J. National Cancer Institute, 1990, 82, 1107-1112). […] Triplicate wells were used for each treatment. The cells were incubated with the various compounds for 96 hours at 37° C. in a humidified 5% CO2 atmosphere. After 96-hour incubation, cells were fixed with 10% trichloroacetic acid (‘TCA’), incubated for 1 hour at 4° C., and washed 3 times with tap water. Subsequently cells were stained with 0.4% sulforhodamine B in 1% acetic acid for 30 minutes, washed 4 times with 1% acetic acid, and air-dried again. After 5 minutes agitation in 10 mM Tris solution, the absorbance of each well was measured at 530 nm using Benchmark Plus Microplate reader (Bio-Rad Laboratories, Hercules, Calif.).
(§4) To translate the OD530 values into the number of live cells in each well, the OD530 values were compared to those on standard OD530-versus-cell number curves generated for each cell line. The percent survival was calculated using the formula: % Survival=live cell number[test]/live cell number[control]×100
(§5) The IC50 values were calculated by non-linear regression analysis.

MDA-MB-231 (breast) = assay: Cell growth inhibition assay (SRB), MDA-MB-231; format: cell-based, human; settings: SRB method, 96 hours incubation
Experimental: as §1, §2, §3, §4, §5

UMRC2 (kidney) = assay: Cell growth inhibition assay (SRB), UMRC2; format: cell-based, human; settings: SRB method, 96 hours incubation
Experimental: as §1, §2, §3, §4, §5

[1] = tested on: MCF-7 (breast, hormone-dependent); assay: Cell growth inhibition assay (SRB), MCF-7; format: cell-based; settings: Homo sapiens, MCF7; SRB method, 96 hours incubation, MCF-7 (breast, hormone-dependent); read-out: IC50, MCF-7
Experimental: as §1, §2, §3, §4, §5

OVCAR-3 (ovary) = assay: Cell growth inhibition assay (SRB), OVCAR-3; format: cell-based; settings: Homo sapiens; SRB method, 96 hours incubation, OVCAR-3 (ovary); read-out: IC50, OVCAR-3
Experimental: as §1, §2, §3, §4, §5

HCT116 (colon) = assay: Cell growth inhibition assay (SRB), HCT116; format: cell-based; settings: Homo sapiens, HCT-116; SRB method, 96 hours incubation, HCT116 (colon); read-out: IC50, HCT116
Experimental: as §1, §2, §3, §4, §5

A549 (lung) = assay: Cell growth inhibition assay (SRB), A549; format: cell-based; settings: Homo sapiens; SRB method, 96 hours incubation, A549 (lung); read-out: IC50, A549
Experimental: as §1, §2, §3, §4, §5

Caki-1 (kidney) = assay: Cell growth inhibition assay (SRB), Caki-1; format: cell-based; settings: Homo sapiens; SRB method, 96 hours incubation, Caki-1 (kidney); read-out: IC50, Caki-1
Experimental: as §1, §2, §3, §4, §5

[2] = Homo sapiens, PANC-1 (pancreas), read-out: IC50, PANC-1
[3] = Homo sapiens, MDA-MB-231 (breast), read-out: IC50, MDA-MB-231
[4] = Homo sapiens, UMRC2 (kidney), read-out: IC50, UMRC2

Row | IC50 (PANC-1 (pancreas); [2]) | IC50 (MDA-MB-231 (breast); [3]) | Structure (SMILES) | IC50 (UMRC2 (kidney); [4]) | further results
1 | – | – | COc1ccc2nc(NC(=O)N3CCN(c4cccc(C(F)(F)F)c4)CC3)c(OC)nc2c1 [Compound 158, 1-[(3,6-Dimethoxyquinoxalin-2-yl)aminocarbonyl]-4-(3-trifluorotoly)piperazine] | – | IC50 (PANC-1 (pancreas); PANC-1 (pancreas), read-out: IC50, PANC-1): > 1 µM; IC50 (MDA-MB-231 (breast); MDA-MB-231 (breast), read-out: IC50, MDA-MB-231): > 1 µM; IC50 (UMRC2 (kidney); UMRC2 (kidney), read-out: IC50, UMRC2): > 1 µM
2 | 1.05 µM | 0.72 µM | COc1cc2nc(NC(=O)N3CCN(c4cccc(Br)c4)CC3)c(OC)nc2cc1OC [Compound 196, 1-[(2,6,7-Trimethoxyquinoxalin-3-yl)aminocarbonyl]-4-(3-bromophenyl)piperazine] | 0.65 µM | –
3 | 0.24 µM | 0.17 µM | COc1nc2cc(Cl)ccc2nc1NC(=O)N1CCN(c2cccc(Cl)c2)CC1 [Compound 120, 1-[(6-Chloro-3-methoxyquinoxalin-2-yl)aminocarbonyl]-4-(3-chlorophenyl)piperazine] | 0.17 µM | IC50 [1]: 600 nM; IC50 (OVCAR-3 (ovary)): 360 nM; IC50 (HCT116 (colon)): 480 nM; IC50 (A549 (lung)): 750 nM; IC50 (Caki-1 (kidney)): 400 nM
4 | > 1 µM | > 1 µM | COc1ccc2nc(NC(=O)N3CCN(c4ccccn4)CC3)c(OC)nc2c1 [Compound 167, 1-[(3,6-Dimethoxyquinoxalin-2-yl)aminocarbonyl]-4-(2-pyridyl)piperazine] | > 1 µM | –
5 | 0.46 µM | 0.23 µM | COc1ccc2nc(NC(=O)N3CCN(c4cccc(Cl)c4)CC3)c(OC)nc2c1 [Compound 162, 1-[(3,6-Dimethoxyquinoxalin-2-yl)aminocarbonyl]-4-(3-chlorophenyl)piperazine] | 0.29 µM | –
6 | – | – | COc1nc2ccc(C)cc2nc1NC(=O)N1CCN(c2cccc(Cl)c2)CC1 [Compound 57, 1-[(2-Methoxy-6-methylquinoxalin-3-yl)aminocarbonyl]-4-(3-chlorophenyl)piperazine] | – | IC50 (PANC-1 (pancreas); Homo sapiens, PANC-1, read-out: Inhibition of cell growth (IC50, μM) by quinoxaline-piperazine compounds against human cancer cell lines: PANC-1): 0.64 µM; IC50 (MDA-MB-231 (breast); Homo sapiens, MDA-MB-231, read-out: Inhibition of cell growth (IC50, μM) by quinoxaline-piperazine compounds against human cancer cell lines: MDA-MB-231): 0.14 µM; IC50 (UMRC2 (kidney); Homo sapiens, UMRC2, read-out: Inhibition of cell growth (IC50, μM) by quinoxaline-piperazine compounds against human cancer cell lines: UMRC2): 0.24 µM
